Here are results for one molecule from publication PMC10449633 (Nature Chemical Biology, 2023).

“And” between values parts separate entries of the source, which are not always exact repeats. Equal values may be shown once. Read-outs that look alike come from different tables or passages of the source. Numbered stars: 1 amine (or outer) side, 2 acyl side, 3 side chain; on linkers, the order of the positions; unused ones are H or OH. Square brackets hold non-standard residues; d marks the D form. Peptide text beside a SMILES is read from it. ξ: configuration not given here. X1 = CN(C(Cc1cn(Cc2ccc(Br)cc2)c2ccccc12)C(=O)[*:2])[*:1]; ξAla(CF3) = NC(CC(F)(F)F)C(=O)O; X2 = N#CCCC(O[*:1])C(=O)[*:2]; NMeL = CN[CH](CC(C)C)C(=O)O; NMeA = CN[CH](C)C(=O)O

Data set [1] deals with Sec61α. In words: Photo-cotransin (CT7) photo-affinity labeling competition, LMNG-solubilized ER microsomes. In kind it is binding, sheep. To be noted: excess competitor, LMNG-solubilized ER membranes. The text has this:
To understand the molecular basis of Sec61 inhibition by KZR-8445, we pursued structural investigations using single-particle cryo-EM. Our initial attempts to isolate cotransin-bound ribosome–Sec61 complexes with the commonly used detergent digitonin were not successful. Several other detergents were screened for retention of native-like cotransin binding by subjecting solubilized Sec61 to a cotransin photo-affinity labeling assay[15] (Extended Data Fig. 2a). This screen identified lauryl maltoside neopentyl glycol (LMNG), a lipid-mimetic detergent that permits maximal photo-cotransin binding, as indicated by specific crosslinking to the Sec61α subunit in LMNG-solubilized ER membranes.
Sheep pancreatic ER microsomes (SRM) were isolated according to the method described earlier[48],[49]. […] The labeled proteins were analyzed by SDS–PAGE and in-gel fluorescence followed by Western blotting using anti-Sec61α and anti-RPL18 antibodies. […]
Extended Data Fig. 2 Isolation and biochemical characterization of the inhibitor-bound ribosome-Sec61 (RNC) complexes. […] (c) Gel filtration profile of clarified detergent-solubilized sample fractions with measured absorbance at A260. […]

The test system of data set [2] is Vero E6 cells. To be noted: Mock infected 48 h.

Consider `CC(C)CC1NC(=O)C(Cc2cn(Cc3ccc(Br)cc3)c3ccccc23)N(C)C(=O)C(CC(F)(F)F)NC(=O)C(CC(C)C)N(C)C(=O)C(CC(F)(F)F)NC(=O)C(CCC#N)OC(=O)C(C)N(C)C1=O` (centres unmarked) [KZR-8445] (cyclo([X1]L[NMeA][X2][ξAla(CF3)][NMeL][ξAla(CF3)]); configuration not given here), for which the “competition of photo-cotransin crosslinking to Sec61α” value in data set [1] is given as “efficiently competed”. For the same molecule, the cell viability in data set [2] (0.01 uM) was 91.0268 and 102.167 and 114.581; in data set [2] (0.04 uM), 90.9801 and 99.0668 and 98.0954; in data set [2] (0.12 uM), 93.1234 and 96.6644 and 96.0334; in data set [2] (0.37 uM), 79.1404 and 83.8559 and 91.7442; in data set [2] (1.11 uM), 83.2343 and 88.2826 and 88.422; in data set [2] (3.33 uM), 85.0888 and 89.2631 and 88.8876. Also, in data set [2] (10 uM), the cell viability is 76.0738 and 86.0259 and 84.7152.
